These results are taken from patent publication US6653290B2, “Tumor proliferation inhibitors” (Bristol-Myers Squibb Company, priority 2000, dated 2003).

The test system of assay [1] is murine P388 cell line. The assay can be described thus: Cell-based cytotoxicity (XTT proliferation inhibition) against murine P388 cell line. As to conditions: Mus musculus, P388 cells, 72 h incubation, absorbance at 450 nm, read-out: IC50 (drug concentration required to inhibit cell proliferation to 50% of untreated control cells). As to the method: The proliferation inhibition activity against murine P388 cell line was measured as follows. Evaluation of a soluble tetrazolium/formazan assay for cell growth and drug sensitivity in culture, using human and other tumor cell lines, was done according to the procedure described in Cancer Res. 1988, 48, 4827-4833. Cells were plated at 4000 cells/well in 96 well microtiter plates and 24 h later drugs were added and serially diluted. The cells were incubated at 37° C. for 72 h, at which time a tetrazolium dye, XTT, containing phenazine methosulfate was added. A dehydrogenase enzyme in live cells reduced the XTT to a form that absorbs light at 450 nm, which could be quantitated spectrophotometrically. The greater the absorbance the greater the number of live cells. The results are expressed as an IC50, which is the drug concentration required to inhibit cell proliferation (i.e., absorbance at 450 nm) to 50% of that of untreated control cells.
For orientation: Formazan colour is commonly taken as a measure of viable cells.

Assay [2] has as its target T1, purified human topoisomerase I (Homo sapiens, UniProt P11387).
T1 construct: purchased Topogen
T1 sequence (P11387 1-765): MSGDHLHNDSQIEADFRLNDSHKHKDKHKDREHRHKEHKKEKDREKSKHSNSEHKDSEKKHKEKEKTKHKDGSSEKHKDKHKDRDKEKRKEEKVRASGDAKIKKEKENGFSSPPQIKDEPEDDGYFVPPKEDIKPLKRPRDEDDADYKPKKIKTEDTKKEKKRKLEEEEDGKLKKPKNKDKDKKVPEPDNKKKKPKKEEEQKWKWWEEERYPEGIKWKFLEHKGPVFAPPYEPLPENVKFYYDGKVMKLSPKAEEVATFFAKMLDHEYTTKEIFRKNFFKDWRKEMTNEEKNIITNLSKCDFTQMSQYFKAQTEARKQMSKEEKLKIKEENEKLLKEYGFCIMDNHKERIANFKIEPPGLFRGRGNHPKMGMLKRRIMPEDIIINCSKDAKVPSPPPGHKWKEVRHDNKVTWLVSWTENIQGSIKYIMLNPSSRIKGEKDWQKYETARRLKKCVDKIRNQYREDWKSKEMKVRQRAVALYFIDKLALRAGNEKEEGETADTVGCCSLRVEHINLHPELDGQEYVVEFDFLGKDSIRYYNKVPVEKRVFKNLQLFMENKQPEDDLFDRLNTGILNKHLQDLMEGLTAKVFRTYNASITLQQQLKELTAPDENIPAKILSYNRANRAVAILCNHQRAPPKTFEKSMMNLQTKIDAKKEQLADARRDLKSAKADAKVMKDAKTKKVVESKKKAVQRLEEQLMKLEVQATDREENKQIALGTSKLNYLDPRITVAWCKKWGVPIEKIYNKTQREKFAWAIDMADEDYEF
The assay can be described thus: Topoisomerase I activity (in vitro): compound-induced, topoisomerase I-mediated single strand breaks in PM2 DNA. It counts as biochemical. To be noted: purified human topoisomerase I (Topogen), 30 minutes at 37° C., read-out: EC50 (median effective concentration for inducing topoisomerase I-mediated single strand breaks in DNA). As to the method: Topoisomerase I activity was measured as described below. The procedure for assaying compound-induced, topoisomerase I-mediated single strand breaks in DNA was essentially that described by Hsiang, et al., (J. Biol. Chem. 1985, 260,14873-14878). Samples dissolved in 100% DMSO as either 10 μM or 10 mg/ml solutions, unless otherwise stated, were diluted in Tris-EDTA buffer. Marine bacteriophage PM2 DNA (Boehringer Mannheim) was also diluted in Tris-EDTA buffer to a concentration of 0.02 μg/μl. Different dilutions of compound being evaluated were mixed with diluted DNA and this mixture was added to 1000 unit (one unit of enzyme activity is defined as the amount capable of relaxing 100 ng of supercoiled DNA in approximately 30 minutes at 37° C.) aliquots of purified human topoisomerase I (Topogen) in 2×reaction buffer to start the reaction. The compound—DNA—enzyme mixture was incubated for 30 minutes at 37° C. before stopping the reaction with warm stop buffer containing sodium dodecyl sulfate and proteinase K (Sigma). These mixtures were allowed to incubate at 37° C. for another 10 minutes, at which time the mixtures were removed from the waterbath and extracted with a 24:1 mixture of chloroform/isoamyl alcohol. Following centrifugation, aliquots of the aqueous phases were placed in wells of a 0.9% agarose (SeaKem) gel in Tris-borate buffer containing 0.5 μg/ml of ethidium bromide and subjected to electrophoresis for 15 hours to separate the different topological isomers and nicked and broken DNAs. After destaining the gel in water, the ethidium bromide stained DNA reaction products were visualized by exposing the gel to UV irradiation. Negatives of photographs of the irradiated gels were scanned with a densitometer and areas under the peaks were calculated in order to obtain percent single strand DNA break formation for each sample. A median effective concentration (EC50) was obtained for each compound by interpolation between points of the resulting dose-effect curve which defines the potency of the compound for its effect in inducing topoisomerase I-mediated single strand breaks in DNA. The topoisomerase I activity for selected compounds of the present invention is shown below in Table I.

As for `CCOC1(C)CC(O)C(O)C(n2c3ccc(F)cc3c3c4c(c5c6cc(F)ccc6[nH]c5c32)C(=O)NC4=O)O1` [Example 10, 3,9-Difluoro-12-(4,6-dideoxy-5-ethoxy-6-D-glucopyranosyl)-6,7, 12, 13-tetrahydro(5H)indolo[2,3-a]pyrrolo[3,4-c]carbazole-5,7-dione], in assay [1], the IC50 was found to be 55 nM.

Consider `CC(C)OC1(C)CC(O)C(O)C(n2c3ccc(F)cc3c3c4c(c5c6cc(F)ccc6[nH]c5c32)C(=O)NC4=O)O1` [Example 11, 3,9-Difluoro-12-(4,6-dideoxy-5-isopropoxy-δ-D-glucopyranosyl)-6,7, 12, 13-tetrahydro(5H)indolo[2,3-a]pyrrolo[3,4-c]carbazole-5,7-dione], for which, in assay [1], the IC50 came out at 200 nM.

Turning to `CO[C@]1(CO)O[C@@H](n2c3cc(F)c(F)cc3c3c4c(c5c6cc(F)c(F)cc6[nH]c5c32)C(=O)NC4=O)[C@H](O)[C@@H](O)[C@@H]1O` [Example 7, 2,3,9, 10-Tetrafluoro-12-(5-methoxy-β-D-glucopyranosyl)-6,7, 12, 13-tetrahydro(5H)indolo[2,3-a]pyrrolo[3,4-c]carbazole-5,7-dione], the IC50 in assay [1] amounted to 250 nM. In assay [2], the EC50 is 270 nM.

With `CO[C@@]1(C)C[C@H](O)[C@@H](O)[C@H](n2c3ccc(F)cc3c3c4c(c5c6cc(F)ccc6[nH]c5c32)C(=O)NC4=O)O1` [Example 9, 3,9-Difluoro-12-(4,6-dideoxy-5-methoxy-β-D-glucopyranosyl)-6,7, 12, 13-tetrahydro(5H)indolo[2,3-a]pyrrolo[3,4-c]carbazole-5,7-dione], the IC50 in assay [1] was 7 nM.

On to `O=C1NC(=O)c2c1c1c3cc(F)c(F)cc3[nH]c1c1c2c2cc(F)c(F)cc2n1[C@@H]1OC(CO)(CO)C[C@H](O)[C@H]1O` [Example 1, 2,3,9, 10-Tetrafluoro-12-[5-C-(hydroxymethyl)-4-deoxy-β-D-glucopyranosyl]-indolo[2,3-a]pyrrolo[3,4-c]carbazole-5,7-dione], for which, in assay [1], the IC50 stood at 35 nM. Also, in assay [2], the EC50 was 40 nM.

In the case of `COC1(C)CC(O)C(O)C(n2c3cc(F)c(F)cc3c3c4c(c5c6cc(F)c(F)cc6sc5c32)C(=O)NC4=O)O1` [Example 12, 2,3,9, 10-Tetrafluoro-12-(4,6-dideoxy-5-methoxy-δ-D-glucopyranosyl)-6,7, 12, 13-tetrahydro(5H)benzo[b]thieno[2,3-a]pyrrolo[3,4-c]carbazole-5,7-dione], the IC50 in assay [1] turned out to be 69 nM.

Regarding `CO[C@@]1(CO)C[C@H](O)[C@@H](O)[C@H](n2c3cc(F)c(F)cc3c3c4c(c5c6cc(F)c(F)cc6[nH]c5c32)C(=O)NC4=O)O1` [Example 8, 2,3,9, 10-Tetrafluoro-12-(4-deoxy-5-methoxy-β-D-glucopyranosyl) -6,7, 12, 13-tetrahydro(5H)indolo[2,3-a]pyrrolo[3,4-c]carbazole-5,7-dione], in assay [1], the IC50 came out at 35 nM. In assay [2], the EC50 is 50 nM.

`CO[C@@]1(C)C[C@H](O)[C@@H](O)[C@H](n2c3cc(F)c(F)cc3c3c4c(c5c6cc(F)c(F)cc6[nH]c5c32)C(=O)NC4=O)O1` [Example 6, 2 , 3,9, 10-Tetrafluoro-12-(4,6-dideoxy-5-methoxy-β-D-glucopyranosyl) -6,7, 12, 13-tetrahydro(5H)indolo[2,3-a]pyrrolo[3,4-c]carbazole-5,7-dione]: the IC50 in assay [1] is 50 nM. Moreover, the EC50 in assay [2] worked out at 70 nM.
